In publication PMC6154314, “Evaluation of the Mycobactericidal Effect of Thio-functionalized Carbohydrate Derivatives” (Molecules : A Journal of Synthetic Chemistry and Natural …, 2017):
Values after ≈ are worked out from the molar mass of the structure shown. “Also recorded” adds a separate entry of the source. Like-named read-outs stand apart in the source and are kept apart here.

What was measured:
[1] = Lipophilicity, octanol/water partition coefficient (LogP); type: physicochemical
Procedure: The most important parameter of drug candidates is lipophilicity, which determines water solubility, absorption and often cytotoxicity. The lipophilicity of the synthesized compounds was measured as the partition (P) or distribution (D) coefficient. The octanol/water partition/distribution coefficient is a widely used parameter for measuring lipophilicity. The Log P value is the ratio of the concentrations of a neutral substance in two immiscible phases: water and octan-1-ol. Log D is the log partition at a particular pH, and it is usually reserved for partition coefficients measured under conditions in which the solute is partially or completely ionized in the aqueous phase. For all compounds used in this work, the LogP and cLogP values were determined (Table 4). Each compound was also analysed by TLC (thin layer chromatography) and ^1H-NMR to verify its purity. All synthesized and tested compounds were analytically pure. Complete characterization of the products was performed by NMR spectroscopy and HR-MS techniques to confirm their purity and molecular structures.

[2] = system: Mycobacterium tuberculosis in human monocyte-derived macrophages; experiment: Bactericidal effect against intracellularly growing tubercle bacilli in human monocyte-derived macrophages (CFU); type: cell-based; conditions: Mtb-infected human MDMs; for Inhibition of growth of intracellularly deposited tubercle bacilli (in words): 48 h, compounds at MIC50 concentrations
[3] = system: human monocyte-derived macrophages (MDMs); conditions: MTT, 48 h, uninfected MDMs; 50, 30, 30, 25 µM for 6, 16A, 20, 23
Staphylococcus aureus = experiment: Broth microdilution susceptibility test (CLSI), S. aureus; type: cell-based; conditions: for MIC50: Staphylococcus aureus, read-out: MIC50 anti-S. aureus
Escherichia coli = experiment: Broth microdilution susceptibility test (CLSI), E. coli; type: cell-based; conditions: for MIC50: Escherichia coli, read-out: MIC50 anti-E. coli
[4] = system: Mycobacterium tuberculosis H37Rv strain (Mtb); experiment: Susceptibility of M. tuberculosis in broth culture (OD600 and CFU analysis); type: cell-based; conditions: for MIC50: Mycobacterium tuberculosis; for MIC50 / MIC50 anti-Mtb (OD): M. tuberculosis H37Rv, broth culture, 96 h; for Bactericidal activity against M. tuberculosis (in words): tested at 1–0.25 mM, OD600
bacterium = system: bacterium; design: method as in PMID 387415, PMID 16707680; conditions: as low as; after siderophore-dependent uptake and intracellular activation; cited from earlier work
[5] = microdilution, Mueller-Hinton broth, 18 h, OD600
[6] = read by CFU, read-out: MIC50 anti-Mtb (CFU)
[7] = read by OD600, read-out: MIC50 anti-Mtb (OD)

Compound: Nc1nnc(S[C@@H]2CC(=O)[C@@H]3OC[C@H]2O3)s1 [Compound 23, (1R,2R,5R)-2-((5-amino-1,3,4-thiadiazol-2-yl)-thio)-6,8-dioxabicyclo[3.2.1]octan-4-one]
- logP [1]: 1.37
- Inhibition of growth of intracellularly deposited tubercle bacilli (in words) [2]: able to inhibit the growth; also recorded: significantly inhibit the growth
- OD[570nm] ± SD [3]: 2.428 ± 0.031
- Concentration inhibiting the growth of S. aureus (Staphylococcus aureus): ≤ 1 mM
- MIC50 (Staphylococcus aureus; [5]): > 625 µM
- Concentration inhibiting the growth of E. coli (Escherichia coli): below 1 mM
- MIC50 (Escherichia coli; [5]): > 1250 µM
- MIC50 [4, 6]: 25 µM (≈ 6.48 µg/mL)
- melting point: 140 to 142 °C

Compound: CS(=O)(=O)NC[C@H]1OC[C@H](O)[C@@H](O)[C@@H]1O [Compound 5, 1,5-anhydro-6-deoxy-6-methanesulfamido-D-glucitol]
- logP [1]: -3.6
- MIC50 (Staphylococcus aureus; [5]): > 2000 µM
- MIC50 (Escherichia coli; [5]): > 2000 µM
- MIC50 [4, 7]: > 1000 µM
- Bactericidal activity against M. tuberculosis (in words) [4]: not active

Compound: CC(=O)OC[C@H]1O[C@@H](O[C@H]2[C@H](OC(C)=O)[C@@H](OC(C)=O)[C@H](S[C@@H]3CC(=O)[C@@H]4OC[C@H]3O4)O[C@@H]2COC(C)=O)[C@H](OC(C)=O)[C@@H](OC(C)=O)[C@H]1OC(C)=O [Compound 16]
- logP [1]: -2.18
- MIC50 (Staphylococcus aureus; [5]): > 5000 µM
- MIC50 (Escherichia coli; [5]): > 5000 µM
- MIC50 [4, 7]: 500 µM (≈ 389 µg/mL)
- Fold increase of the concentration (MIC50) needed to inhibit Mtb relative to compound 6 [4]: 10 times

Compound: OC[C@@]12CO[C@H](O1)[C@H](O)[C@@H](O)[C@H]2O [Compound 3, 1,6-anhydro-5-C-hydroxymethyl-α-L-altro-pyranose]
- logP [1]: -2.38
- MIC50 [4, 7]: > 1000 µM
- Bactericidal activity against M. tuberculosis (in words) [4]: not observed

Compound: CC(=O)OC[C@H]1O[C@@H](S[C@@H]2CC(=O)[C@@H]3OC[C@H]2O3)[C@H](OC(C)=O)[C@@H](OC(C)=O)[C@H]1OC(C)=O [Compound 9]
- logP [1]: -1.13
- MIC50 [4, 7]: > 150 µM
- Fold increase of the concentration (MIC50) needed to inhibit Mtb relative to compound 6 [4]: at least 3 times

Compound: O=[N+]([O-])CC1(O)O[C@H](CO)[C@@H](O)[C@H](O)[C@H]1O (stereo partly drawn) [Compound 13, 1-C-nitromethyl-D-gluco-pyranose]
- logP [1]: -4.22
- MIC50 (Staphylococcus aureus; [5]): > 10000 µM
- MIC50 (Escherichia coli; [5]): > 10000 µM
- MIC50 [4, 7]: > 1000 µM

Compound: NC(=S)NN=C1C=C[C@H]2CO[C@@H]1O2 [Compound 14, 1,6-anhydro-3,4-dideoxy-α-D-glycero-hex-3-enopyranos-2-thiosemicarbazone]
- logP [1]: -0.18
- MIC50 (Staphylococcus aureus; [5]): > 5000 µM
- MIC50 (Escherichia coli; [5]): > 5000 µM
- MIC50 [4, 7]: 350 µM (≈ 69.7 µg/mL)

Compound: 5-thio-D-glucose pentaacetate [Compound 1]
- logP ([1]; octanol/water): −0.51
- MIC50 anti-Mtb (OD) ([4]; read by OD600): MIC50 > 1 mM/OD
- Bactericidal activity against M. tuberculosis (in words) [4]: not bactericidal

Compound: NC(=S)NN=C1CC[C@H]2CO[C@@H]1O2 [Compound 14A, 1,6-anhydro-3,4-dideoxy-α-D-glycero-hexopyranos-2-thiosemicarbazone]
- logP [1]: -0.29
- MIC50 (Staphylococcus aureus; [5]): > 1250 µM
- MIC50 (Escherichia coli; [5]): > 2500 µM
- MIC50 [4, 7]: > 1000 µM

Compound: CC(=O)OC[C@H]1O[C@@H](S[C@@H]2CC(=O)[C@@H]3OC[C@H]2O3)[C@H](OC(C)=O)[C@@H](OC(C)=O)[C@@H]1OC(C)=O [Compound 6]
- logP [1]: -1.13
- Inhibition of growth of intracellularly deposited tubercle bacilli (in words) [2]: able to inhibit the growth; also recorded: significantly inhibit the growth
- OD[570nm] ± SD [3]: 2.163 ± 0.054
- MIC50 (Staphylococcus aureus; [5]): 2500 µM (≈ 1230 µg/mL)
- MIC50 (Escherichia coli; [5]): 5000 µM (≈ 2450 µg/mL)
- MIC50 [4, 6]: 50 µM (≈ 24.5 µg/mL)

Compound: CC(=O)N[C@H]1CO[C@H](CO)[C@@H](O)[C@@H]1O [Compound 10, 2-acetamido-2-dexy-1,5-anhydro-D-mannitol]
- logP [1]: -2.75
- MIC50 (Staphylococcus aureus; [5]): > 10000 µM
- MIC50 (Escherichia coli; [5]): > 10000 µM
- MIC50 [4, 7]: > 1000 µM

Compound: O=C(O)c1ccccc1S[C@@H]1CC(=O)[C@@H]2OC[C@H]1O2 [Compound 8, 1,6-anhydro-3-deoxy-4-S-β-salicylyl-D-glycero-hexopyranos-2-ulose]
- logP [1]: 1.28
- MIC50 (Staphylococcus aureus; [5]): > 10000 µM
- MIC50 (Escherichia coli; [5]): > 10000 µM
- MIC50 [4, 6]: 200 µM (≈ 56.1 µg/mL)
- Fold increase of the concentration (MIC50) needed to inhibit Mtb relative to compound 6 [4]: 4 times

Compound: CC(=O)OC[C@H]1O[C@@H](O[C@H]2[C@H](OC(C)=O)[C@@H](OC(C)=O)[C@H](SC34CC5CC(CC(C5)C3)C4)O[C@@H]2COC(C)=O)[C@H](OC(C)=O)[C@@H](OC(C)=O)[C@H]1OC(C)=O [Compound 19]
- MIC50 [4, 7]: 500 µM (≈ 393 µg/mL)

Compound: O=C1C[C@@H](S[C@@H]2O[C@H](CO)[C@@H](O)[C@H](O)[C@H]2O)[C@H]2CO[C@@H]1O2 [Compound 7, 1,6-anhydro-3-deoxy-4-S-β-D-glucopyranosyl-D-glycero-hexopyranos-2-ulose]
- logP [1]: -2.05
- MIC50 (Staphylococcus aureus; [5]): > 10000 µM
- MIC50 (Escherichia coli; [5]): > 10000 µM
- MIC50 [4, 6]: 500 µM (≈ 161 µg/mL)
- Fold increase of the concentration (MIC50) needed to inhibit Mtb relative to compound 6 [4]: 10 times

Compound: 6-thio-β-D-fructopyranose [Compound 2]
- logP ([1]; octanol/water): −1.36
- MIC50 anti-S. aureus (Staphylococcus aureus; [5]): MIC50 > 2 mM/E. coli MIC50 > 2 mM/S. aureus
- MIC50 anti-E. coli (Escherichia coli; [5]): MIC50 > 2 mM/E. coli MIC50 > 2 mM/S. aureus
- MIC50 anti-Mtb (OD) ([4]; read by OD600): MIC50 > 1 mM/OD
- Bactericidal activity against M. tuberculosis (in words) [4]: not bactericidal

Compound: COCC(OC(C)=O)[C@H]1O[C@@H]2OC(C)(C)O[C@@H]2[C@H]1OC(C)=O (stereo partly drawn) [Compound 12, 1,2-O-isopropylidene-3,5-di-O-acetyl-6-methoxy-D-glucofuranose]
- logP [1]: -0.2
- MIC50 (Staphylococcus aureus; [5]): > 10000 µM
- MIC50 (Escherichia coli; [5]): > 5000 µM
- MIC50 [4, 7]: > 1000 µM

Compound: OC1C(O)C(O)C2(CO2)C(O)C1O (centres unmarked) [Compound 4, 2-C-methylene-myo-inositol oxide]
- logP [1]: -3.22
- MIC50 [4, 7]: > 1000 µM
- Bactericidal activity against M. tuberculosis (in words) [4]: not active

Compound: CC(=O)OC[C@H]1O[C@@H](O[C@H]2[C@H](OC(C)=O)[C@@H](OC(C)=O)[C@H](S[C@@H]3CC(=NNC(N)=S)[C@@H]4OC[C@H]3O4)O[C@@H]2COC(C)=O)[C@H](OC(C)=O)[C@@H](OC(C)=O)[C@H]1OC(C)=O [Compound 16A]
- Inhibition of growth of intracellularly deposited tubercle bacilli (in words) [2]: able to inhibit the growth
- Decrease of the number of intracellularly growing mycobacteria ([2]; MOI 1:10, 48 h, compound at MIC (30 µM for 16A), CFU vs untreated control): ~61%
- MIC50 (Staphylococcus aureus; [5]): > 1250 µM
- Concentration inhibiting the growth of E. coli (Escherichia coli): below 1 mM
- MIC50 (Escherichia coli; microdilution, Mueller-Hinton broth, 18 h, OD600, printed in µM): > 150 µM
- MIC50 [4, 6]: 30 µM (≈ 25.6 µg/mL)

Compound: O=C1C[C@@H](SC2=NCCS2)[C@H]2CO[C@@H]1O2 [Compound 26, (1R,2R,5R)-2-((4,5-dihydrothiazol-2-yl)-thio)-6,8-dioxabicyclo[3.2.1]octan-4-one]
- logP [1]: 1.13
- Inhibition of growth of intracellularly deposited tubercle bacilli (in words) [2]: able to inhibit the growth
- MIC50 (Staphylococcus aureus; [5]): > 2500 µM
- Concentration inhibiting the growth of E. coli (Escherichia coli): below 1 mM
- MIC50 (Escherichia coli; [5]): > 2500 µM
- MIC50 [4, 6]: 50 µM (≈ 12.3 µg/mL)
- melting point: 127 to 129 °C

Compound: albomycin
- MIC (bacterium): 0.008 µM

Compound: CC1(C)O[C@H]2O[C@H](C3CO3)[C@H](O)[C@H]2O1 (stereo partly drawn) [Compound 11, 1,2-O-isopropylidene-5,6-anhydro-D-glucofuranose]
- logP [1]: -0.39
- MIC50 [4, 7]: 750 µM (≈ 152 µg/mL)
